Test results taken from publication PMC7221733, “Synthetic Kavalactone Analogues with Increased Potency and Selective Anthelmintic Activity against Larvae of Haemonchus contortus In Vitro” (Molecules, 2020).
Read-outs that look alike come from different tables or passages of the source.

How the values were obtained:
[1] = test system: HepG2 human hepatoma cells; experiment: Cytotoxicity on HepG2 cells (CellTiter-Glo cell viability assay); assay type: cell-based; conditions: for EC50: Homo sapiens, read-out: HepG2 EC50
Description: Synthesized compounds were tested for their toxicity on HepG2 human hepatoma cells, as described previously. In brief, compounds were tested in a 10-point, two-fold dilution series, commencing at 40 µM. The cells were cultured in Dulbecco’s modified Eagle’s medium (DMEM) supplemented with 10% fetal bovine serum (FBS) and incubated at 37 °C with 5% v/v CO2. The cells were seeded into 384-well plates at a density of 1 × 10^3 per well and exposed to compounds for 48 h. The toxicity was determined by CellTiter-Glo® cell viability assay (Promega, USA), which assessed the number of viable cells based on the quantity of ATP present. Matched percentages of etoposide and DMSO were used as positive and negative (untreated) controls, respectively. The EC50 values were determined as described in Section 3.3, and the selectivity index was calculated by dividing the EC50 value for HepG2 cells by the IC50 value for H. contortus.

[2] = test system: Haemonchus contortus; parameters: method as in PMID 30739078; conditions: cited from earlier work; for Phenotype induced in treated larvae / IC50: previous study; for IC50: purchased / isolated kavalactones, read-out: IC50 for inhibition of larval (L4) development of H. contortus
[3] = test system: MCF10A, non-tumorigenic breast epithelial cells; parameters: method as in PMID 30739078; conditions: in vitro cell proliferation assay; cited from earlier work
[4] = test system: Haemonchus contortus; experiment: Larval development assay (xL3 to L4) of H. contortus in vitro; assay type: cell-based; conditions: for IC50: read-out: Inhibition of Larval Development in H. Contortus IC50 (µM) ± SEM; for Anthelmintic activity in the larval development assay (in words): dilution series commencing at 100 µM
Description: The Haecon-5 strain of H. contortus was produced in experimental sheep, according to animal ethics guidelines of the University of Melbourne, Australia (permit no.1413429). The feces were collected from the infected sheep and incubated at 27 °C for 1 week, allowing first-stage larvae to emerge and develop to third-stage larvae (L3s). L3s were collected and stored at 10 °C until used in experiments; xL3s were prepared by treating L3s with 0.15% v/v sodium hypochlorite (NaClO) and incubated for 20 min at 38 °C, and subsequently washed five times with sterile physiological saline (pH 7.0). These xL3s were immediately incubated at 38 °C in sterile Luria Bertani (LB) broth supplemented with 100 IU/ml of penicillin, 100 µg/ml of streptomycin, and […] of amphotericin B (fungizone, antibiotic—antimycotic; cat. no. 15240-062; Gibco, Thermo Fisher Scientific, Waltham, MA, USA); this supplemented medium was designated as LB*.
In our previous study, larval development-inhibition results guided the fractionation of the active extract from P. methysticum, and the findings were consistent with subsequent potency assessments of the purified kavalactones. Therefore, the developmental inhibition assay for H. contortus was used to determine the activity/potency of the kavalactone analogues synthesized in the present study. In brief, all synthesized compounds as well as monepantel (Zolvix, Elanco Animal Health, Australia) and moxidectin (Cydectin, Virbac, France) (two positive controls) were individually tested for inhibition of larval development in H. contortus using an 18-point, two-fold dilution series, commencing at 100 µM. Compound solutions (in dimethyl sulfoxide [DMSO] plus LB*) were prepared and added to 96-well flat bottom plates to achieve the desired final concentrations in a final volume of 100 µl, and xL3s (as described in Section 3.2) were dispensed into individual wells at a density of 300 worms per well (in 50 µl of LB*). Matched concentrations of DMSO (0.25% in LB*) were used as negative (untreated) controls. The plates were incubated (10% v/v CO2) at 38 °C for 7 days. Larvae in each well were fixed with 50 µl of 1% iodine at 7 days, and the number of xL3s that developed to L4s in each well was counted by light microscopic examination at 20× magnification. L4s were differentiated from xL3s by their well-developed mouth and pharynx characteristics. The assay was repeated three times on different days using three replicates in each assay. The half-maximum inhibitory concentration (IC50) of each compound was determined by fitting the log10-transformed concentration to a variable slope four-parameter model using the GraphPad Prism (v. 8.3.1) software (GraphPad Software Inc., San Diego, CA, USA).

[5] = HepG2, 48 h exposure, CellTiter-Glo, highest concentration 40 µM
[6] = Haemonchus contortus, 168 h, xL3 to L4 development, 7 days, synthesized compounds, mean ± SEM
[7] = xL3 to L4 development, 7 days, synthesized compounds, mean ± SEM

Row | Structure (SMILES) | EC50 [1, 5] [µM] | IC50 [4, 6] [µM] | further results
1 | CC(C)C[C@H](NC(=O)[C@H](Cc1ccccc1)NC(=O)c1cnccn1)B(O)O [Bortezomib, reference compound] | 0.01 |  | 
2 | COc1cc(/C=C/c2ccccc2)oc(=O)c1 [Compound 1, desmethoxyyangonin] | > 40 | 37.1 ± 3.1 | Exposure time sufficient to induce the Evi phenotype ([2]; H. contortus): 30 h; Phenotype induced in treated larvae [2]: lethal ‘evisceration’ (Evi) phenotype; IC50 [2]: 31.7 µM; Toxicity on MCF10A cells [3]: limited toxicity
3 | COc1ccc(/C=C/c2cc(OC)cc(=O)o2)cc1 [Compound 2, yangonin] | > 40 | 15 ± 3 | Phenotype induced in treated larvae [2]: lethal ‘evisceration’ (Evi) phenotype; IC50 [2]: 23.7 µM; Toxicity on MCF10A cells [3]: limited toxicity
4 | COc1cc(/C=C/c2ccc(OC(F)(F)F)cc2)oc(=O)c1 [Compound 3] | > 40 | 1.9 ± 0.1 | Selectivity index (HepG2 EC50 / H. contortus IC50) ([1]; against H. contortus): > 20 fold
5 | COc1cc(/C=C/c2ccc(OC(F)F)cc2)oc(=O)c1 [Compound 4] | > 40 | 8.9 ± 0.3 | 
6 | COc1cc(/C=C/c2ccc(Oc3ccccc3)cc2)oc(=O)c1 [Compound 5] | > 40 | 5.2 ± 2.2 | 
7 | COc1cc(/C=C/c2ccc(Cl)cc2)oc(=O)c1 [Compound 6] | > 40 | 12.4 ± 3.5 | 
8 | COc1cc(/C=C/c2ccc(C)cc2)oc(=O)c1 [Compound 7] | > 40 | 12.6 ± 2.1 | 
9 | COc1cc(/C=C/c2ccc(C(F)(F)F)cc2)oc(=O)c1 [Compound 8] | > 40 | 10.3 ± 1.2 | 
10 | COc1cc(/C=C/c2ccc(N(C)C)cc2)oc(=O)c1 [Compound 9] | > 40 | > 50 | Anthelmintic activity in the larval development assay (in words) [4]: inactive at the highest concentration tested
11 | COc1cc(/C=C/c2ccc(N3CCOCC3)cc2)oc(=O)c1 [Compound 10] | > 40 | 6.4 ± 0.2 | 
12 | COc1cc(/C=C/c2ccc(N3CCNCC3)cc2)oc(=O)c1 [Compound 11] | > 40 | > 100 | Anthelmintic activity in the larval development assay (in words) [4]: inactive
13 | COC(=O)c1ccc(/C=C/c2cc(OC)cc(=O)o2)cc1 [Compound 12] | > 40 | > 100 | Anthelmintic activity in the larval development assay (in words) [4]: inactive at the highest concentration tested
14 | COc1cc(/C=C/c2ccc(C#N)cc2)oc(=O)c1 [Compound 13] | > 40 | > 100 | Anthelmintic activity in the larval development assay (in words) [4]: inactive at the highest concentration tested
15 | COc1cc(/C=C/c2ccccc2OC)oc(=O)c1 [Compound 14] | > 40 | 61.9 | IC50 [4, 7]: > 100 µM
16 | COc1cccc(/C=C/c2cc(OC)cc(=O)o2)c1 [Compound 15] | > 40 | > 100 | IC50 [4, 7]: 61.9 ± 7.3 µM
17 | COc1cc(/C=C/c2ccc3c(c2)OCO3)oc(=O)c1 [Compound 16] |  |  | IC50 ([4]; Haemonchus contortus, 168 h): > 100 µM; EC50 ([1]; HepG2, 48 h): > 40 µM
18 | COc1cc(/C=C/c2cccc(C#N)c2)oc(=O)c1 [Compound 17] | > 40 | > 100 | 
19 | COC(=O)c1cccc(/C=C/c2cc(OC)cc(=O)o2)c1 [Compound 18] | > 40 | > 100 | 
20 | COc1cc(/C=C/c2ccc(OC)nc2)oc(=O)c1 [Compound 19] | > 40 | > 100 | Anthelmintic activity in the larval development assay (in words) [4]: inactive at the highest concentration tested
21 | C[C@](C#N)(COc1cc(C#N)ccc1C(F)(F)F)NC(=O)c1ccc(SC(F)(F)F)cc1 [Monepantel, monepantel, reference compound] |  | 0.07 ± 0.01 | 
22 | CO/N=C1\C[C@]2(C[C@@H]3C[C@@H](C/C=C(\C)C[C@@H](C)/C=C/C=C4\CO[C@@H]5[C@H](O)C(C)=C[C@@H](C(=O)O3)[C@]45O)O2)O[C@H](/C(C)=C/C(C)C)[C@H]1C [Moxidectin, moxidectin, reference compound] |  | 0.02 | 
23 | COC1=CC(=O)O[C@@H](CCc2ccccc2)C1 [dihydrokavain, reference compound] |  |  | Phenotype induced in treated larvae [2]: lethal ‘evisceration’ (Evi) phenotype; IC50 [2]: 208 µM; Toxicity on MCF10A cells [3]: limited toxicity
